Several values for one entry are separate records, joined by “and”; a condition that tells them apart may be missing. Identical values can stand only once.

The source of these data is patent US6251919A, “Heterocyclic substituted aniline calcium channel blockers” (Warner-Lambert, priority 1999, dated 2001).

The target in this test is T1, N-type Ca^2+ channel in IMR-32 cells (Homo sapiens, UniProt Q00975).
T1 construct: host or cells: IMR-32 (differentiated with dibutyryl cAMP and bromodeoxyuridine)
Nature of the test: N-type Ca2+ channel blockade in IMR-32 cells (fluorescent Ca2+ indicator Indo-1). The class given is cell-based. The following applies: 5 μM nitrendipine present; for inhibition at 1 µM: IMR-32, 1 μM; for inhibition at 10 µM: IMR-32, 10 μM.

T1 sequence (Q00975 whole entry): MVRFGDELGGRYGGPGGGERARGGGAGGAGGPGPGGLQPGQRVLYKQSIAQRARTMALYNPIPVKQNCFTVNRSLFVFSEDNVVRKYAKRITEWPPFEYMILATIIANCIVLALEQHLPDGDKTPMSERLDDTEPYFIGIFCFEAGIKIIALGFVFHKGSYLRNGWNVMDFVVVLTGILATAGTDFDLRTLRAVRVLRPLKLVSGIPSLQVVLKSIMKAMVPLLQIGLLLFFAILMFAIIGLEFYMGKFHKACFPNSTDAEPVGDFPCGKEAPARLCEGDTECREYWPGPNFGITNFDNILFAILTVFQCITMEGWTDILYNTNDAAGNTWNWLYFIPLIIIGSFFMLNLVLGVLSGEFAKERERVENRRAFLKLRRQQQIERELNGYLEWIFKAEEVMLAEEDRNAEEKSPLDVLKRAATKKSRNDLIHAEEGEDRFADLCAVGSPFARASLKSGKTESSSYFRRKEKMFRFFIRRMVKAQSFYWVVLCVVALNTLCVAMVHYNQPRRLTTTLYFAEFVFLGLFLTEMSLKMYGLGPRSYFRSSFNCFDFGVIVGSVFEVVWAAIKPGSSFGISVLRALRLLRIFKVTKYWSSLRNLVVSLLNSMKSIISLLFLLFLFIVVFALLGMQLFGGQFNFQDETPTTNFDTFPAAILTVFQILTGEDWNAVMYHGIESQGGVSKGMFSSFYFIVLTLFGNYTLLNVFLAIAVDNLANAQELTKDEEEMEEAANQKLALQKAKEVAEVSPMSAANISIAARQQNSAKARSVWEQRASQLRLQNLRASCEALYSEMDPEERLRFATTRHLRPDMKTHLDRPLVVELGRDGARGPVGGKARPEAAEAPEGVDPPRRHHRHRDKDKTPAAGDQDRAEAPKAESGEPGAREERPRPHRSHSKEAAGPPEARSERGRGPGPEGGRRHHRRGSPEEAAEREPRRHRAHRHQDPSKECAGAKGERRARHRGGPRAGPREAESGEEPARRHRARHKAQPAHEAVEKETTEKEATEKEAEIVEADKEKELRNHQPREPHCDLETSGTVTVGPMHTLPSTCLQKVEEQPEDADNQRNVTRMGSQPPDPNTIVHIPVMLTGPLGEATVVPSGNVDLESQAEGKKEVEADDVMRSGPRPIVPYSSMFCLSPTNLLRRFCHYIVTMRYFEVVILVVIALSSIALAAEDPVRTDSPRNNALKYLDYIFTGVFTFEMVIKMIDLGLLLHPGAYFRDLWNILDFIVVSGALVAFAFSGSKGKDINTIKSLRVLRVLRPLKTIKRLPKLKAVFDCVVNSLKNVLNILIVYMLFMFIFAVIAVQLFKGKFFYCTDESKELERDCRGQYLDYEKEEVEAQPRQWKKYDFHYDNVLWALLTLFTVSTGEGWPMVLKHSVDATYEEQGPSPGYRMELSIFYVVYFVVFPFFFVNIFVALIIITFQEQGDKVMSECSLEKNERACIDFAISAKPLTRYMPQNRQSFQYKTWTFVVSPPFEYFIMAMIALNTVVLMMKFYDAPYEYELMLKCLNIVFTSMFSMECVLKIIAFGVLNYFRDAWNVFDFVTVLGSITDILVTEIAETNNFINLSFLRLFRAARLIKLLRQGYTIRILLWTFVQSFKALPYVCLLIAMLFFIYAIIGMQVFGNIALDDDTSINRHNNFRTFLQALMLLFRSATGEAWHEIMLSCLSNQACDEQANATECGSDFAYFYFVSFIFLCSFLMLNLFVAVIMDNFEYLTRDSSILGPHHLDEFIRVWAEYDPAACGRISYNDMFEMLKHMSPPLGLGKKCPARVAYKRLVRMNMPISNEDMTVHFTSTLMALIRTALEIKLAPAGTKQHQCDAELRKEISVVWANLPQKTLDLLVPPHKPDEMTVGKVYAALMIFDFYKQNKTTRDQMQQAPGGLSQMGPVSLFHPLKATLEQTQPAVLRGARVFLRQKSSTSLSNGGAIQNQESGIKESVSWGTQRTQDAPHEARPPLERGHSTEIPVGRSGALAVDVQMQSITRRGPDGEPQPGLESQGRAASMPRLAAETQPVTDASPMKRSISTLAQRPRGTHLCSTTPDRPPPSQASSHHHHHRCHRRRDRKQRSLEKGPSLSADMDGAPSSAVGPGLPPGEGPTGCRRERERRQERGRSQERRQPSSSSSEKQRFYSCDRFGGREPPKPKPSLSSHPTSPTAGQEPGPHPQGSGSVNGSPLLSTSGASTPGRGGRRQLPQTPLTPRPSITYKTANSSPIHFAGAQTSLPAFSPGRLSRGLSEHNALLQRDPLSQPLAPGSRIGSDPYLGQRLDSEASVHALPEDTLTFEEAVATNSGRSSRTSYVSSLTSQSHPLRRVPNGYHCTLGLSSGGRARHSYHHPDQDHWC

The IC50 is the point on the concentration scale where inhibition reaches its midpoint. High values mean lower potency, low ones higher potency. Take `CC(C)=CCN(c1ccc(OCc2ccccc2)cc1)C1CCCN(Cc2ccccc2)C1` (stereo not drawn) [Example 49, (4-Benzyloxy-phenyl)-(1-benzyl-piperidin-3-yl)-(3-methyl-but-2-enyl)-amine]: the IC50 turned out to be 1200 nM. As a reminder, the inhibition is the relative decrease from the control value, in per cent. For the molecule `CC(C)=CCN(c1ccc(OCc2ccccc2)cc1)C1CCN(Cc2ccc(F)cc2)CC1` [Example 25, (4-Benzyloxy-phenyl)-[1-(4-fluoro-benzyl)-piperidin4-yl]-(3-methyl-but-2-enyl)-amine], the inhibition at 1 µM is 62%. `CC(C)=CCN(c1ccc(OCc2ccccc2)cc1)C1CCN(C(=O)C2CCCN(CCC(C)C)C2)CC1` (stereo not drawn) [Example 12, {4-[(4-Benzyloxy-phenyl)-(3-methyl-but-2-enyl)-amino]-piperidin-1-yl}-[1-(3-methyl-butyl)-piperidin-3-yl]-methanone] came in with an inhibition at 1 µM of 49% and an inhibition at 10 µM of 75%.

`CC(C)CCN(c1ccc(OCC2CCCCC2)cc1)C1CCN(CCC(C)(C)C)CC1` [Example 42, (4-Cyclohexylmethoxy-phenyl)-[1-(3,3-dimethyl-butyl)-piperidin-4-yl]-(3-methyl-butyl)-amine] displayed an inhibition at 1 µM of 60% and an inhibition at 10 µM of 81%. Turning to `CC(C)=CCN(c1ccc(C(C)C)cc1)C1CCN(C(=O)[C@@H](O)CC(C)C)CC1` [Example 45, (S)-2-Hydroxy-1-{4-[(4-isopropyl-phenyl)-(3-methyl-but-2-enyl)-arnino]-piperidin-1-yl}-4-methyl-pentan-1-one], at 1 µM the inhibition was 28% and 10 µM produced 85% inhibition. Turning to `CC(C)=CCN(c1ccc(OCc2ccccc2)cc1)C1CCN(Cc2ccc(C(C)(C)C)cc2)CC1` [Example 3, (4-Benzyloxy-phenyl)-[1-(4-tert-butyl-benzyl)-piperidin-4-yl]-(3-methyl-but-2-enyl)-amine], the inhibition at 1 µM is 96%. Consider `CC(C)=CCN(c1ccc(CCC(C)(C)C)cc1)C1CCN(Cc2ccc(N(C)C)cc2)CC1` [Example 39, [1-(4-Dimethylamino-benzyl)-piperidin-4-yl]-[4-(3,3-dimethyl-butyl)-phenyl]-(3-methyl-but-2-enyl)-amine], for which the “IMR 32 % of Blockade @ 1 μM” value (1 μM) is 85% and 60%. The molecule `CC(C)=CCN(c1ccc(OCc2ccccc2)cc1)C1CCN(C(=O)C2CC(C)CCN2CCC(C)C)CC1` (stereo not drawn) [Example 17, {4-[(4-Benzyloxy-phenyl)-(3-methyl-but-2-enyl)-amino]-piperidin-1-yl}-[4-methyl-1-(3-methyl-butyl)-piperidin-2-yl]-methanone] yielded an inhibition at 1 µM of 86% and an inhibition at 10 µM of 76%. Consider `CC(C)=CCN(c1ccc(OCc2ccccc2)cc1)C1CCN(C(=O)C2CN(C)CCN2CCC(C)C)CC1` (stereo not drawn) [Example 14, {4-[(4-Benzyloxy-phenyl)-(3-methyl-but-2-enyl)-amino]-piperidin-1-yl}-[4-methyl-1-(3-methyl-butyl)-piperazin-2-yl]-methanone], for which at 1 µM the inhibition was 44% and the inhibition at 10 µM is 88%.

`CC(C)=CCN(c1ccc(OCc2ccccc2)cc1)C1CCN(C(=O)C2CCN(CCC(C)C)CC2)CC1` [Example 13, {4-[(4-Benzyloxy-phenyl)-(3-methyl-but-2-enyl)-amino]-piperidin-1-yl}-[1-(3-methyl-butyl)-piperidin-4-yl]-methanone] came in with an inhibition at 1 µM of 37% and an inhibition at 10 µM of 75%.

Turning to `CC(C)=CCN(c1ccc(OCc2ccccc2)cc1)C1CCN(CCCc2ccccc2)CC1` [Example 22, (4-Benzyloxy-phenyl)-(3-methyl-but-2-enyl)-[1-(3-phenyl-propyl)-piperidin-4-yl]-amine], the IC50 is 500 nM. `CC(C)=CCN(c1ccc(C(C)C)cc1)C1CCN(CCC(C)O)CC1` (stereo not drawn) [Example 27, 4-{4[(4Isopropyl-phenyl)-(3-methyl-but-2-enyl)-amino]-piperidin-1-yl}-butan-2ol] yielded an inhibition at 1 µM of 15%.
